From BindingDB's records for doi:10.1016/0922-4106(94)90227-5 (Novo Nordisk, 1994)
pKi: −log10 of the molar value.

How the values were obtained:
[1] = biological target: Glutamate receptor ionotropic, NMDA 1 (Rattus norvegicus, UniProt P35439)
[2] = biological target: Glutamate receptor 3 (Rattus norvegicus, UniProt P19492)
[3] = biological target: Metabotropic glutamate receptor 2 (Homo sapiens, UniProt Q14416)
[4] = biological target: Glutamate receptor ionotropic, kainate 1 (Rattus norvegicus, UniProt P22756)
Glutamate receptor ionotropic, kainate 1, sequence (P22756 whole entry): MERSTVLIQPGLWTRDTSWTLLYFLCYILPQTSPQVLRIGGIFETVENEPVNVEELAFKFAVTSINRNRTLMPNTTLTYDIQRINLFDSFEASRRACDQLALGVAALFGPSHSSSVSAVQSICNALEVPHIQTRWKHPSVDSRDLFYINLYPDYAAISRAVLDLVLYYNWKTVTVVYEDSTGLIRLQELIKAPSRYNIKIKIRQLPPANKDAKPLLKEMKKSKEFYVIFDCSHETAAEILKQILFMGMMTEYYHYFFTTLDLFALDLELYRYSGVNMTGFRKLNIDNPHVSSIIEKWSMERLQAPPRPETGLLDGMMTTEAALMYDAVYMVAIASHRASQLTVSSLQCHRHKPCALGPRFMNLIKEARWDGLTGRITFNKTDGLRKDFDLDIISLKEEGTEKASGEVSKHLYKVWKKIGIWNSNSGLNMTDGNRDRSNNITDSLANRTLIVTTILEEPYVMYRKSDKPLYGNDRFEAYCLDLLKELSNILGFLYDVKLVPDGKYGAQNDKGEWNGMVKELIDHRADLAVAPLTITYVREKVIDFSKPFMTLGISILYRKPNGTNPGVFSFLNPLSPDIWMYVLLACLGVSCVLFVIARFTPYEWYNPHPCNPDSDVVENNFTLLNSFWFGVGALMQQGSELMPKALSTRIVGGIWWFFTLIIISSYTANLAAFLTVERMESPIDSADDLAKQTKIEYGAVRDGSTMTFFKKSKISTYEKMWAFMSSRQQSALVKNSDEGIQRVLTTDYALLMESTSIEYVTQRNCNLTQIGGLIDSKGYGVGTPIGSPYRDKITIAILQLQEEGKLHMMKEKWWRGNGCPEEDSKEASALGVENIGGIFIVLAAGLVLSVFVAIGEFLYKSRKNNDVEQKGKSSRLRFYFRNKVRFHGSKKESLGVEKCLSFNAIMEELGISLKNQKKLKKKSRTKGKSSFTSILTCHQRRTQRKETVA

[5] = biological target: Metabotropic glutamate receptor 4 (Rattus norvegicus, UniProt P31423)
Metabotropic glutamate receptor 4, sequence (P31423 whole entry): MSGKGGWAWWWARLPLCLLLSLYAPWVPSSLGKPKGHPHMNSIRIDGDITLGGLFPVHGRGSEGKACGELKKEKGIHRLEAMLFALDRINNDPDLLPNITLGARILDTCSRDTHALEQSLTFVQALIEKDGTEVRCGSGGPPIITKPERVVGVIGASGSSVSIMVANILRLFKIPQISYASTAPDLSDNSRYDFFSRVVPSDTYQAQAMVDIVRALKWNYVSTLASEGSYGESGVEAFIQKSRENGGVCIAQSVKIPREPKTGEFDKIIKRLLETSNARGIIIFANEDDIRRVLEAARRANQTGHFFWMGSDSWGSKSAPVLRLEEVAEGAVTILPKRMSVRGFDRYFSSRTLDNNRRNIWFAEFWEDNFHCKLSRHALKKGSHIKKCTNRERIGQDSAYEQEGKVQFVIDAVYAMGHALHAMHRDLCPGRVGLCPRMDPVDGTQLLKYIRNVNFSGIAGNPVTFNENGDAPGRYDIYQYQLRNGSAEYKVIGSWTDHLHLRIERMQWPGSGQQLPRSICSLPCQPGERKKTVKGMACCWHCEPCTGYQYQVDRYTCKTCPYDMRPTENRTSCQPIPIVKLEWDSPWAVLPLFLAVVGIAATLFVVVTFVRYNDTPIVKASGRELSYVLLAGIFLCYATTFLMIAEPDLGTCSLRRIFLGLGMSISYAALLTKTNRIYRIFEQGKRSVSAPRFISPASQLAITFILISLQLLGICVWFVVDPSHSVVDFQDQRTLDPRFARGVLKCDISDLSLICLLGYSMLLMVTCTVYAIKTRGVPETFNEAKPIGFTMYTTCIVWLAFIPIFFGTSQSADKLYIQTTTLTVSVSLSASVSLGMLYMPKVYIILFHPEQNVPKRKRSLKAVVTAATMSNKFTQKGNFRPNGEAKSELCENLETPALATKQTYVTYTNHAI

[6] = biological target: Metabotropic glutamate receptor 1 (Rattus norvegicus, UniProt P23385)
Metabotropic glutamate receptor 1, sequence (P23385 whole entry): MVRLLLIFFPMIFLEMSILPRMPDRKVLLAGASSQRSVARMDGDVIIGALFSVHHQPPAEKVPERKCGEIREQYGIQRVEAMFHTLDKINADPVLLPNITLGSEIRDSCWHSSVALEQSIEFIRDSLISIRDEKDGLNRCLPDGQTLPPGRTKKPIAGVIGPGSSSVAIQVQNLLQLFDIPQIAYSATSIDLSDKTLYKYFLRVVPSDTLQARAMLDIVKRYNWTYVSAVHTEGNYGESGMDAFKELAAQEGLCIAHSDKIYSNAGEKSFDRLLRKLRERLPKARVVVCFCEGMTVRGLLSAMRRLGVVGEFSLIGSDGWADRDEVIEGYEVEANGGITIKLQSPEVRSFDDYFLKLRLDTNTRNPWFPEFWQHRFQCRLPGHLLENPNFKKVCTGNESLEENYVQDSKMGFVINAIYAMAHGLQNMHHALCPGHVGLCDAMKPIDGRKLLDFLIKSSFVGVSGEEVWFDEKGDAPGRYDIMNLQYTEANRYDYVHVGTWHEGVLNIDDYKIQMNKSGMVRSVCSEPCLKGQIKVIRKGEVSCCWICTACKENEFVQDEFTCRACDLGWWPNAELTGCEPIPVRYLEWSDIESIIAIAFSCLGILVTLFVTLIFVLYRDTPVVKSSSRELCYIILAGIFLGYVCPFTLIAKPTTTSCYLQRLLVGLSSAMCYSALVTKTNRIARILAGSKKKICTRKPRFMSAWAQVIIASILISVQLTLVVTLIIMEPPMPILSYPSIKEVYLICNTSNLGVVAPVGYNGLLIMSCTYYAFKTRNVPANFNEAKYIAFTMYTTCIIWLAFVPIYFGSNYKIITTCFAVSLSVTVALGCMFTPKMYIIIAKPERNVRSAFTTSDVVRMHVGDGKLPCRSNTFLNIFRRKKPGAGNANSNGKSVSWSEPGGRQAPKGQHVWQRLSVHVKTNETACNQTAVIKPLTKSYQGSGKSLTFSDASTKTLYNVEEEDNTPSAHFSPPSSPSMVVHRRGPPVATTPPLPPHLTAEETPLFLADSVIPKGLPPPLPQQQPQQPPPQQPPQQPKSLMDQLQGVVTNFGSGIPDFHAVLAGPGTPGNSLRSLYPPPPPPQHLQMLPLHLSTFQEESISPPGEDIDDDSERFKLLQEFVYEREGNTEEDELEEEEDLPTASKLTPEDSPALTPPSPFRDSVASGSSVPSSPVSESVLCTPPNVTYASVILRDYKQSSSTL

Metabotropic glutamate receptor 2, sequence (Q14416 whole entry): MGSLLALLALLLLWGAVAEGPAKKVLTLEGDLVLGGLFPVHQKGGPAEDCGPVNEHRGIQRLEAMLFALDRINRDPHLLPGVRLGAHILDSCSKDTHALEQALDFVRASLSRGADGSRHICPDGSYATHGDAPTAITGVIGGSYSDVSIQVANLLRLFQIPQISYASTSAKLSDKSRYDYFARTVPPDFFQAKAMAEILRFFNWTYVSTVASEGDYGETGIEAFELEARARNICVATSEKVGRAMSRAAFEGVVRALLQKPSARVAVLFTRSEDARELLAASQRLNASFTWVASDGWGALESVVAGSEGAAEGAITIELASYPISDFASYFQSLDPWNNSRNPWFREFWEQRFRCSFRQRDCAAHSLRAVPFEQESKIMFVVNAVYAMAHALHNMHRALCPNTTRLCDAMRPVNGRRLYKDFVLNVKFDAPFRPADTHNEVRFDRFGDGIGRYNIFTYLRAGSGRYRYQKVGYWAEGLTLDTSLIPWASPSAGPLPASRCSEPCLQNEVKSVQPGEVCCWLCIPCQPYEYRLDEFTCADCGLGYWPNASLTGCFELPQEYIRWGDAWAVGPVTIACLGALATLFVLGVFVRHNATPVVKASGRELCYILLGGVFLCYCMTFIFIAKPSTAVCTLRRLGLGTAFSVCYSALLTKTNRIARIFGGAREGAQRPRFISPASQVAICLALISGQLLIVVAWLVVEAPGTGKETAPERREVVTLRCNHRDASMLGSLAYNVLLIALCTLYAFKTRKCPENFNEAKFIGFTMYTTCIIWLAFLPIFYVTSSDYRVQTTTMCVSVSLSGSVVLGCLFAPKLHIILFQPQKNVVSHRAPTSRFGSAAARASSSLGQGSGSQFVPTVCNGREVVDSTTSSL
Glutamate receptor 3, sequence (P19492 whole entry): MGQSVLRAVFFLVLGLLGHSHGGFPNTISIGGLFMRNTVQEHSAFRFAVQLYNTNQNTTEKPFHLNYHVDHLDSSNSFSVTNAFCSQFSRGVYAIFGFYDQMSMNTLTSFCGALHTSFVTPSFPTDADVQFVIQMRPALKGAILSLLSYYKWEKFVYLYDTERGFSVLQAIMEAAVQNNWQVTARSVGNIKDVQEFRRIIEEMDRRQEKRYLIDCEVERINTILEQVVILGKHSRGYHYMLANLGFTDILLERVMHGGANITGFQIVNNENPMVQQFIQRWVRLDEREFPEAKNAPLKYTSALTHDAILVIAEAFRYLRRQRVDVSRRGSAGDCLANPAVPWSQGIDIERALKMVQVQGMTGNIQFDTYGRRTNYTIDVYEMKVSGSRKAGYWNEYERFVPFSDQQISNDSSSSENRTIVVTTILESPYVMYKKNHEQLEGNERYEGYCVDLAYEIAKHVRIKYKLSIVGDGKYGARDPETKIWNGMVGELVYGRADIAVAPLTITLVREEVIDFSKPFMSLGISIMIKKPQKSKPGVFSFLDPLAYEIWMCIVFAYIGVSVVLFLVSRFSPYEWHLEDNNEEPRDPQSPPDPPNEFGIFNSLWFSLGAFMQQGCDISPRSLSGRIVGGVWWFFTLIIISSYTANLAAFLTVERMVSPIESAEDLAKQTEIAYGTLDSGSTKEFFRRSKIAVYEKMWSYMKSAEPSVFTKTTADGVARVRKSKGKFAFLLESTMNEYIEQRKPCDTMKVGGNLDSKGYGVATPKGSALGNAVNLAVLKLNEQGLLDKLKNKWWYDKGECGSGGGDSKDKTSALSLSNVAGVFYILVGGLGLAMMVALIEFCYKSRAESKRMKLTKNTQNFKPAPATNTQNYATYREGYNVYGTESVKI

| SMILES | pKi [1] | pKi [2] | pKi [3] | pKi [4] | pKi [5] | pKi [6] |
| --- | --- | --- | --- | --- | --- | --- |
| NC(C(=O)O)c1ccc(C(=O)O)cc1 (centres undefined) [4-(Amino-carboxy-methyl)-benzoic acid] | – | – | < 5.00 | – | < 5.00 | < 5.00 |
| N[C@@H](C(=O)O)c1cccc(O)c1 [(R)-3-Hydroxyphenylglyci] | < 5.00 | < 5.00 | < 5.00 | < 5.00 | < 5.00 | < 5.00 |
| N[C@H](C(=O)O)c1cccc(O)c1 [(S)-3-Hydroxyphenylglycine] | < 5.00 | < 5.00 | < 5.00 | < 5.00 | < 5.00 | < 5.00 |
| N[C@@H](C(=O)O)c1ccc(C(=O)O)cc1 [(S)-4CPG] | < 5.00 | < 5.00 | < 5.00 | < 5.00 | < 5.00 | < 5.00 |
| N[C@@H](C(=O)O)c1ccc(O)c(C(=O)O)c1 [CB7394016] | < 5.00 | – | < 5.00 | < 5.00 | < 5.00 | < 5.00 |

Second part, the molecule after the results:

| pKi [1] | pKi [2] | pKi [3] | pKi [4] | pKi [5] | pKi [6] | SMILES |
| --- | --- | --- | --- | --- | --- | --- |
| < 5.00 | < 5.00 | < 5.00 | < 5.00 | < 5.00 | < 5.00 | C[C@@](N)(C(=O)O)c1ccc(C(=O)O)cc1 (racemic) |
| < 5.00 | < 5.00 | < 5.00 | < 5.00 | < 5.00 | < 5.00 | N[C@H](C(=O)O)c1ccc(O)c(C(=O)O)c1 [3C4HPG] |
| < 5.00 | < 5.00 | < 5.00 | < 5.00 | < 5.00 | < 5.00 | N[C@H](C(=O)O)c1ccc(C(=O)O)cc1 [4-((S)-Amino-carboxy-methyl)-benzoic acid] |
